The subject of data set [1] is genetically female Cannabis ssp plants. Description: AIB root drench: induction of male flowers and phytotoxicity (Example 21). Type of data set: in vivo. The method, then:
To determine if the ethylene inhibitor 2-Aminoisobutyric acid (AIB) can induce male flowers on genetically female Cannabis ssp plants, three different rates of 2-Aminoisobutyric acid (AIB) were applied to plants as a root drench, with two applications per rate. The first application occurred 79 days after seeding, which was on the day plants were transitioned from a vegetative, long day photoperiod (18 h day) to a reproductive, short day photoperiod (12 h day), and the second treatment was applied 5 days later. The stem diameter of the plants on the day of the first treatment were 9 to 10 mm and the plants ranged from 37 to 54 cm in height. The three rates tested were 50, 150 and 300 mM AIB in water, and 150 ml of solution was applied to the roots as a soil drench.

Data set [2] shares this test system. Description: 1-MCP root drench: induction of male flowers (Example 19). The data set is classed as in vivo. Conditions: 0.27 mM or 0.54 mM 1-MCP root drench, three treatments, 3 varieties. The method, then: To determine if the ethylene inhibitor 1-Methylcyclopropene (1-MCP) can induce male flowers on genetically female Cannabis ssp plants, 1-MCP was applied at two different rates to 3 different varieties, with 2 replicates per treatment. The plants were treated with 1-MCP three times, with the first treatment 51 days after seeding, which was on the day plants were transitioned from a vegetative, long day photoperiod (18 h day) to a reproductive, short day photoperiod (12 h day), the second treatment was applied 7 days later and the third treatment was 8 days after the second. For the first two treatments the low rate was 0.27 mM 1-MCP and 25 ml solution per plant was immediately applied as a root drench. The high rate was 0.54 mM and similarly, 25 ml of solution was applied as a root drench. For the third treatment, the dose was doubled by applying 50 ml of the solutions described above, as the plants were larger.

Each structure is given as a SMILES string.

Consider `CC(C)(N)C(=O)O` [AIB, 2-Aminoisobutyric acid], for which, in data set [1] (50 and 150 mM AIB, two root drenches), the “survival and male structures” value is “survived and produced small male structures that did not produce viable pollen”. For the same molecule, the phytotoxicity result in data set [1] (after the second treatment, particularly in the highest rate) was “more severe phototoxicity”. The plant survival result in data set [1] (highest rate (300 mM AIB), two root drenches) is given as “the plant ultimately died”. In addition, in data set [1] (within 2 days of the first treatment, 50, 150 and 300 mM AIB, 150 ml root drench), the “phytotoxicity in leaf and meristematic tissues” value is reported as “Mild phytotoxicity”.
As for `CC1=CC1` [1-MCP, 1-Methylcyclopropene], in data set [2], the chlorosis entry is “mild chlorosis of growing apices” and the male structures entry is given as “no clear or consistent male structures were observed in any of the treatments”.

For the origin of these results see US20210315175A1, “METHODS OF MAKING FEMINIZED CANNABIS SATIVA SEED AND COMPOSITIONS THEREOF” (priority 2019, published 2021).
